Assay results from the supplement of paper PMC9663587.

Legend:
Assay in all cases: GRmax, 72 h; higher = less effect;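 also: breast cell lines in 384-well plates, nine doses across a 10^4 range, Dye Drop imaging of viable cells vs DMSO and time-zero plates, GR 0 means no net growth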
MDAMB330 = test system: MDAMB330
MDAMB436 = test system: MDAMB436
BT549 = test system: BT549
EVSAT = test system: EVSAT
HCC1806 = test system: HCC1806
SUM159 = test system: SUM159
MDAMB175VII = test system: MDAMB175VII
PDX1258 = test system: PDX1258
ZR751 = test system: ZR751
HCC1395 = test system: HCC1395
MGH312 = test system: MGH312
HCC1419 = test system: HCC1419

Compound | GRmax, 72 h (MDAMB330) [GR] | GRmax, 72 h (MDAMB436) [GR] | GRmax, 72 h (BT549) [GR] | GRmax, 72 h (EVSAT) [GR] | GRmax, 72 h (HCC1806) [GR] | GRmax, 72 h (SUM159) [GR] | GRmax, 72 h (MDAMB175VII) [GR] | GRmax, 72 h (PDX1258) [GR] | GRmax, 72 h (ZR751) [GR] | GRmax, 72 h (HCC1395) [GR] | GRmax, 72 h (MGH312) [GR] | GRmax, 72 h (HCC1419) [GR]
COc1cc2c(Oc3ccc4[nH]c(C)cc4c3F)ncnc2cc1OCCCN1CCCC1 [Cediranib/AZD2171] (max 10 µM) | -0.529 | -0.382 | -0.135 | 0.498 | 0.0954 | 0.518 | -0.648 | -0.561 | 0.672 | -0.482 | -0.0842 | -0.0329
Cc1cc(Nc2ncc(Cl)c(Nc3ccccc3S(=O)(=O)C(C)C)n2)c(OC(C)C)cc1C1CCNCC1 [Ceritinib/LDK378] (max 10 µM) | 0.152 | -0.697 | -0.228 | 0.646 | -0.406 | -0.487 | 0.261 | -0.684 | -0.159 | -0.627 | -0.156 | -0.867
N.N.[Cl][Pt][Cl] [Cisplatin] (max 10 µM) |  | -0.0204 | 0.0674 |  | -0.365 | 0.0896 |  | 0.318 |  | -0.222 |  | 0.0949
Cc1nc(Nc2ncc(C(=O)Nc3c(C)cccc3Cl)s2)cc(N2CCN(CCO)CC2)n1 [Dasatinib] (max 10 µM) | 0.556 | 0.653 | 0.37 | 0.171 | -0.0992 | 0.732 | -0.714 | -0.134 | -0.213 | -0.337 | 0.0774 | -0.196
COc1cccc2c1C(=O)c1c(O)c3c(c(O)c1C2=O)C[C@@](O)(C(=O)CO)C[C@@H]3O[C@H]1C[C@H](N)[C@H](O)[C@H](C)O1 [Doxorubicin] (max 3.162 µM) | -0.205 | -0.129 | -0.331 | -0.192 | -0.324 | -0.361 | -0.595 | -0.493 | -0.0018 | -0.417 | -0.963 | -0.466
COc1cc([C@@H]2c3cc4c(cc3[C@@H](O[C@@H]3O[C@@H]5CO[C@@H](C)O[C@H]5[C@H](O)[C@H]3O)[C@H]3COC(=O)[C@H]23)OCO4)cc(OC)c1O [Etoposide] (max 10 µM) |  | -0.157 | -0.195 |  | -0.563 | -0.279 |  | -0.181 |  | -0.225 |  | 0.0317
CO[C@H]1C[C@@H]2CC[C@@H](C)[C@@](O)(O2)C(=O)C(=O)N2CCCC[C@H]2C(=O)O[C@H]([C@H](C)C[C@@H]2CC[C@@H](OCCO)[C@H](OC)C2)CC(=O)[C@H](C)/C=C(\C)[C@@H](O)[C@@H](OC)C(=O)[C@H](C)C[C@H](C)/C=C/C=C/C=C/1C [Everolimus] (max 10 µM) | -0.378 | 0.615 | 0.52 | 0.354 | 0.817 | 0.866 | -0.189 | 0.631 | 0.305 | 0.404 | 0.148 | 0.18
CCC(=O)Nc1ccc(C(=O)Nc2ccc(Nc3ncc4c(n3)N(C)c3ccc(C)cc3C(=O)N4C)cc2)cc1 [FMF-03-145-1] | -0.0541 | -0.189 | -0.0339 | -0.139 | -0.09 | -0.12 | 0.0817 | -0.267 | 0.153 | -0.151 | -0.365 | 0.387
CC[C@@]1(O)C(=O)OCc2c1cc1n(c2=O)Cc2cc3c(CN(C)C)c(O)ccc3nc2-1 [Topotecan] (max 10 µM) |  | -0.14 | -0.241 |  | -0.546 | -0.454 |  | -0.457 |  | -0.584 |  | -0.786
